Experimental data reported in the supplement of paper PMC10307832.

Key:
Assay in all cases: relative viability (nuclei count vs DMSO), 5 days (fraction); higher = more cells survive
[1] = compound: COc1cc(Nc2ncc(F)c(Nc3ccc4c(n3)NC(=O)C(C)(C)O4)n2)cc(OC)c1OC [R406] + CC(=O)Nc1cccc(-n2c(=O)n(C3CC3)c(=O)c3c(Nc4ccc(I)cc4F)n(C)c(=O)c(C)c32)c1 [Trametinib] (partner 0.02 µM)
How it was run: (§1)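 Dosing by pin tool came one day after lung cancer cell lines were seeded in 1536-well plates, using either one drug or a fixed anchor-drug dose plus five library-drug doses (not always all listed) in √10 steps. After 5 days, nuclei were counted on 4× images. Relative viability is treated-well nuclei count divided by vehicle-well nuclei count, and values are medians of duplicate plates.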

[2] = compound: COc1cc(Nc2ncc(F)c(Nc3ccc4c(n3)NC(=O)C(C)(C)O4)n2)cc(OC)c1OC [R406] + CCNC(=O)c1noc(-c2cc(C(C)C)c(O)cc2O)c1-c1ccc(CN2CCOCC2)cc1 [Luminespib] (partner 0.01 µM)
How it was run: as §1

[3] = compound: O=C(/C=C/c1cccnc1)NCCCCC1CCN(C(=O)c2ccccc2)CC1 [Daporinad] + CS(=O)(=O)N1CCN(Cc2cc3nc(-c4cccc5[nH]ncc45)nc(N4CCOCC4)c3s2)CC1 [Pictilisib] (partner 1 µM)
How it was run: as §1

[4] = compound: O=C(/C=C/c1cccnc1)NCCCCC1CCN(C(=O)c2ccccc2)CC1 [Daporinad] + O=C(c1cc(Cc2n[nH]c(=O)c3ccccc23)ccc1F)N1CCN(C(=O)C2CC2)CC1 [Olaparib] (partner 8 µM)
How it was run: as §1

Cell Line: NCI-H2347
- relative viability ([1]; first compound 0.08 µM): 0.304
- relative viability ([1]; first compound 0.253 µM): 0.285
- relative viability ([1]; first compound 0.8 µM): 0.282
- relative viability ([1]; first compound 2.53 µM): 0.244
- relative viability ([1]; first compound 8 µM): 0.255
- relative viability ([2]; first compound 0.08 µM): 0.521
- relative viability ([2]; first compound 0.253 µM): 0.16
- relative viability ([2]; first compound 0.8 µM): 0.553
- relative viability ([2]; first compound 2.53 µM): 0.307
- relative viability ([2]; first compound 8 µM): 0.272
- relative viability ([3]; first compound 0.0005 µM): 0.636
- relative viability ([3]; first compound 0.001581 µM): 0.788
- relative viability ([3]; first compound 0.005 µM): 0.711
- relative viability ([3]; first compound 0.01581 µM): 0.685
- relative viability ([4]; first compound 0.0005 µM): 0.543
- relative viability ([4]; first compound 0.001581 µM): 0.604
- relative viability ([4]; first compound 0.005 µM): 0.571
- relative viability ([4]; first compound 0.01581 µM): 0.416

Cell Line: NCI-H2405
- relative viability ([1]; first compound 0.08 µM): 0.584
- relative viability ([1]; first compound 0.253 µM): 0.699
- relative viability ([1]; first compound 0.8 µM): 0.615
- relative viability ([1]; first compound 2.53 µM): 0.447
- relative viability ([1]; first compound 8 µM): 0.299
- relative viability ([2]; first compound 0.08 µM): 0.651
- relative viability ([2]; first compound 0.253 µM): 0.954
- relative viability ([2]; first compound 0.8 µM): 0.766
- relative viability ([2]; first compound 2.53 µM): 0.26
- relative viability ([2]; first compound 8 µM): 0.241
- relative viability ([3]; first compound 0.0005 µM): 0.505
- relative viability ([3]; first compound 0.001581 µM): 0.485
- relative viability ([3]; first compound 0.005 µM): 0.5
- relative viability ([3]; first compound 0.01581 µM): 0.377
- relative viability ([4]; first compound 0.0005 µM): 0.848
- relative viability ([4]; first compound 0.001581 µM): 0.841
- relative viability ([4]; first compound 0.005 µM): 0.639
- relative viability ([4]; first compound 0.01581 µM): 0.407

Cell Line: NCI-H3122
- relative viability ([1]; first compound 0.08 µM): 0.234
- relative viability ([1]; first compound 0.253 µM): 0.218
- relative viability ([1]; first compound 0.8 µM): 0.206
- relative viability ([1]; first compound 2.53 µM): 0.241
- relative viability ([1]; first compound 8 µM): 0.234
- relative viability ([2]; first compound 0.08 µM): 0.114
- relative viability ([2]; first compound 0.253 µM): 0.116
- relative viability ([2]; first compound 0.8 µM): 0.132
- relative viability ([2]; first compound 8 µM): 0.0937
- relative viability ([3]; first compound 0.0005 µM): 0.446
- relative viability ([3]; first compound 0.001581 µM): 0.617
- relative viability ([3]; first compound 0.005 µM): 0.677
- relative viability ([3]; first compound 0.01581 µM): 0.692
- relative viability ([4]; first compound 0.0005 µM): 0.564
- relative viability ([4]; first compound 0.001581 µM): 0.565
- relative viability ([4]; first compound 0.005 µM): 0.501
- relative viability ([4]; first compound 0.01581 µM): 0.421

Cell Line: PC-3 [JPC-3]
- relative viability ([1]; first compound 0.08 µM): 0.801
- relative viability ([1]; first compound 0.253 µM): 0.738
- relative viability ([1]; first compound 0.8 µM): 0.81
- relative viability ([1]; first compound 2.53 µM): 0.669
- relative viability ([1]; first compound 8 µM): 0.475
- relative viability ([2]; first compound 0.08 µM): 0.743
- relative viability ([2]; first compound 0.253 µM): 0.708
- relative viability ([2]; first compound 0.8 µM): 0.903
- relative viability ([2]; first compound 2.53 µM): 0.485
- relative viability ([2]; first compound 8 µM): 0.509
- relative viability ([3]; first compound 0.0005 µM): 0.703
- relative viability ([3]; first compound 0.001581 µM): 0.987
- relative viability ([3]; first compound 0.005 µM): 0.824
- relative viability ([3]; first compound 0.01581 µM): 0.659
- relative viability ([4]; first compound 0.0005 µM): 1.18
- relative viability ([4]; first compound 0.001581 µM): 1.08
- relative viability ([4]; first compound 0.005 µM): 1
- relative viability ([4]; first compound 0.01581 µM): 1.09

Cell Line: PC-14
- relative viability ([1]; first compound 0.08 µM): 0.777
- relative viability ([1]; first compound 0.253 µM): 0.898
- relative viability ([1]; first compound 0.8 µM): 0.857
- relative viability ([1]; first compound 2.53 µM): 0.628
- relative viability ([1]; first compound 8 µM): 0.11
- relative viability ([2]; first compound 0.08 µM): 0.153
- relative viability ([2]; first compound 0.253 µM): 0.171
- relative viability ([2]; first compound 0.8 µM): 0.139
- relative viability ([2]; first compound 2.53 µM): 0.123
- relative viability ([2]; first compound 8 µM): 0.126
- relative viability ([3]; first compound 0.0005 µM): 0.656
- relative viability ([3]; first compound 0.001581 µM): 0.726
- relative viability ([3]; first compound 0.005 µM): 0.876
- relative viability ([3]; first compound 0.01581 µM): 0.735
- relative viability ([4]; first compound 0.0005 µM): 0.242
- relative viability ([4]; first compound 0.001581 µM): 0.194
- relative viability ([4]; first compound 0.005 µM): 0.168
- relative viability ([4]; first compound 0.01581 µM): 0.087

Cell Line: RERF-LC-KJ
- relative viability ([1]; first compound 0.08 µM): 0.833
- relative viability ([1]; first compound 0.253 µM): 0.918
- relative viability ([1]; first compound 0.8 µM): 1
- relative viability ([1]; first compound 2.53 µM): 0.753
- relative viability ([1]; first compound 8 µM): 0.715
- relative viability ([2]; first compound 0.08 µM): 1.25
- relative viability ([2]; first compound 0.253 µM): 1.3
- relative viability ([2]; first compound 0.8 µM): 1.19
- relative viability ([2]; first compound 2.53 µM): 1.25
- relative viability ([2]; first compound 8 µM): 0.725
- relative viability ([3]; first compound 0.0005 µM): 0.58
- relative viability ([3]; first compound 0.001581 µM): 0.529
- relative viability ([3]; first compound 0.005 µM): 0.525
- relative viability ([3]; first compound 0.01581 µM): 0.695
- relative viability ([4]; first compound 0.0005 µM): 0.867
- relative viability ([4]; first compound 0.001581 µM): 0.896
- relative viability ([4]; first compound 0.005 µM): 0.82
- relative viability ([4]; first compound 0.01581 µM): 0.757

Cell Line: SK-LU-1
- relative viability ([1]; first compound 0.08 µM): 0.535
- relative viability ([1]; first compound 0.253 µM): 0.531
- relative viability ([1]; first compound 0.8 µM): 0.55
- relative viability ([1]; first compound 2.53 µM): 0.157
- relative viability ([1]; first compound 8 µM): 0.195
- relative viability ([2]; first compound 0.08 µM): 0.192
- relative viability ([2]; first compound 0.253 µM): 0.203
- relative viability ([2]; first compound 0.8 µM): 0.191
- relative viability ([2]; first compound 2.53 µM): 0.151
- relative viability ([2]; first compound 8 µM): 0.101
- relative viability ([3]; first compound 0.0005 µM): 0.482
- relative viability ([3]; first compound 0.001581 µM): 0.601
- relative viability ([3]; first compound 0.005 µM): 0.637
- relative viability ([3]; first compound 0.01581 µM): 0.595
- relative viability ([4]; first compound 0.0005 µM): 0.426
- relative viability ([4]; first compound 0.001581 µM): 0.548
- relative viability ([4]; first compound 0.005 µM): 0.394
- relative viability ([4]; first compound 0.01581 µM): 0.299

Cell Line: SK-MES-1
- relative viability ([1]; first compound 0.08 µM): 0.561
- relative viability ([1]; first compound 0.253 µM): 0.531
- relative viability ([1]; first compound 0.8 µM): 0.553
- relative viability ([1]; first compound 2.53 µM): 0.304
- relative viability ([1]; first compound 8 µM): 0.218
- relative viability ([2]; first compound 0.08 µM): 0.863
- relative viability ([2]; first compound 0.253 µM): 0.858
- relative viability ([2]; first compound 0.8 µM): 0.957
- relative viability ([2]; first compound 2.53 µM): 0.232
- relative viability ([2]; first compound 8 µM): 0.137
- relative viability ([3]; first compound 0.0005 µM): 0.296
- relative viability ([3]; first compound 0.001581 µM): 0.4
- relative viability ([3]; first compound 0.005 µM): 0.345
- relative viability ([3]; first compound 0.01581 µM): 0.306
- relative viability ([4]; first compound 0.0005 µM): 0.603
- relative viability ([4]; first compound 0.001581 µM): 0.636
- relative viability ([4]; first compound 0.005 µM): 0.423
- relative viability ([4]; first compound 0.01581 µM): 0.323

Cell Line: SW 1573
- relative viability ([1]; first compound 0.08 µM): 0.548
- relative viability ([1]; first compound 0.253 µM): 0.614
- relative viability ([1]; first compound 0.8 µM): 0.628
- relative viability ([1]; first compound 2.53 µM): 0.443
- relative viability ([1]; first compound 8 µM): 0.193
- relative viability ([2]; first compound 0.08 µM): 0.396
- relative viability ([2]; first compound 0.253 µM): 0.44
- relative viability ([2]; first compound 0.8 µM): 0.5
- relative viability ([2]; first compound 2.53 µM): 0.161
- relative viability ([2]; first compound 8 µM): 0.107
- relative viability ([3]; first compound 0.0005 µM): 0.524
- relative viability ([3]; first compound 0.001581 µM): 0.552
- relative viability ([3]; first compound 0.005 µM): 0.524
- relative viability ([3]; first compound 0.01581 µM): 0.36
- relative viability ([4]; first compound 0.0005 µM): 0.367
- relative viability ([4]; first compound 0.001581 µM): 0.312
- relative viability ([4]; first compound 0.005 µM): 0.323
- relative viability ([4]; first compound 0.01581 µM): 0.274
